Test results as given in patent US6008251A, “Retinoid-like compounds” (Bristol-Myers Squibb Company, priority 1998, dated 1999).

What was measured:
[1] = tested on: HL60 cells; assay: Differentiation and apoptosis of HL 60 cells (NBT staining); type: cell-based; details: for EC50 (culture day necessary to convert cells into a differentiated or apoptosed phenotype): 1 μM compound, culture up to 9 days, NBT staining
Protocol: HL 60 cells were evaluated for the effect of retinoic acid and the compound of Example 1 on both differentiation and apoptosis end points by the method described in Molecular and Cellular Biology, 15, 3540-3551 (1995). Cells were grown in culture for times up to 9 days in the presence of 1 μM all-trans retinoic acid (t-RA) or 1 μM compound of Example 1. At the end of each day of the culture period, cells were washed and stained with NBT (nitro blue tetrazolium) and counted.

[2] = tested on: squamous-cell carcinoma of the head and neck; details: cited from earlier work

Structure (SMILES)	EC50 (culture day necessary to convert cells into a differentiated or apoptosed phenotype) [1]	activity in this assay compared with t-RA (in words) ([1]; 1 μM, compared with 1 μM t-RA)	percentage of either differentiated or apoptosed HL60 cells ([1]; 1 μM, day 1)	percentage of either differentiated or apoptosed HL60 cells ([1]; 1 μM, day 2)	percentage of either differentiated or apoptosed HL60 cells ([1]; 1 μM, day 3)	percentage of either differentiated or apoptosed HL60 cells ([1]; 1 μM, day 4)	percentage of either differentiated or apoptosed HL60 cells ([1]; 1 μM, day 5)	percentage of either differentiated or apoptosed HL60 cells ([1]; 1 μM, day 6)	percentage of either differentiated or apoptosed HL60 cells ([1]; 1 μM, day 7)	percentage of either differentiated or apoptosed HL60 cells ([1]; 1 μM, day 8)	percentage of either differentiated or apoptosed HL60 cells ([1]; 1 μM, day 9)	prevention of second primary tumors (in words) [2]
CC1(C)C(=O)C(C)(C)c2cc(C(=O)Nc3ccc(C(=O)O)cc3)ccc21 [Example 1, 4(1',1',3',3'-Tetramethyl-2'-keto-indan-5'-carboxamido)benzoicacid]	4.0 days	comparable to t-RA	11%	22%	40%	50%	61%	78%	85%	95%	93%	–
CC1=C(/C=C/C(C)=C/C=C/C(C)=C\C(=O)O)C(C)(C)CCC1 [Isotretinoin]	–	–	–	–	–	–	–	–	–	–	–	useful in prevention of second primary tumors
CC1=C(/C=C/C(C)=C/C=C/C(C)=C/C(=O)O)C(C)(C)CCC1 [all-trans retinoic acid]	3.2 days	–	21%	23%	48%	80%	95%	96%	97%	98%	97%	–
